According to patent US20150105252A1, “SUBSTITUTED PYRAZOLES AS HERBICIDES” (E I DU PONT DE NEMOURS AND COMPANY, priority 2013, published 2015):

Tests used:
chickweed = experiment: Test D preemergence; type: in vivo, Stellaria media; settings: scale 0 to 100
Procedure, shortened: (§1)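 Visual 0–100 control ratings at 14–21 days in a controlled growth environment. Application preemergence onto silt loam or postemergence onto 2–18 cm seedlings, using a non-phytotoxic solvent formulation with surfactant.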

radish, wild = experiment: Test D preemergence; type: in vivo, Raphanus raphanistrum; settings: scale 0 to 100
Procedure, shortened: as §1

windgrass = experiment: Test D preemergence; type: in vivo, Apera spica-venti; settings: scale 0 to 100
Procedure, shortened: as §1

canarygrass = experiment: Test D postemergence; type: in vivo, Phalaris minor; settings: scale 0 to 100
Procedure, shortened: as §1

galium = experiment: Test D postemergence; type: in vivo, Galium aparine; settings: scale 0 to 100
Procedure, shortened: as §1

ryegrass, Italian = experiment: Test D postemergence; type: in vivo, Lolium multiflorum; settings: scale 0 to 100
Procedure, shortened: as §1

lambsquarters = experiment: Test D postemergence; type: in vivo, Chenopodium album; settings: scale 0 to 100
Procedure, shortened: as §1

buckwheat, wild = experiment: Test D postemergence; type: in vivo, Polygonum convolvulus; settings: scale 0 to 100
Procedure, shortened: as §1

velvetleaf = experiment: Test F preemergence; type: in vivo, Abutilon theophrasti
Procedure, shortened: (§2)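 Test chemicals in a non-phytotoxic solvent with surfactant were applied preemergence to seeds sown in silt loam, or postemergence to plants 2–18 cm tall (1- to 4-leaf stage). Plants were kept in a greenhouse for 14–21 days and then rated visually against controls on a 0 (no effect) to 100 (complete control) scale.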

pigweed, palmer = experiment: Test F preemergence; type: in vivo, Amaranthus palmeri
Procedure, shortened: as §2

common waterhemp = experiment: Test F preemergence; type: in vivo, Amaranthus rudis
Procedure, shortened: as §2

arrowleaf sida = experiment: Test F preemergence; type: in vivo, Sida rhombifolia
Procedure, shortened: as §2

dayflower, VA = experiment: Test F preemergence; type: in vivo, Commelina virginica
Procedure, shortened: as §2

yellow nutsedge = experiment: Test F preemergence; type: in vivo, Cyperus esculentus
Procedure, shortened: as §2

[1] = Preemergence, 31 g ai/ha, scale 0 to 100
[2] = Preemergence, 62 g ai/ha, scale 0 to 100
[3] = Preemergence, 125 g ai/ha, scale 0 to 100
[4] = preemergence, 8 g ai/ha, scale 0 to 100, 100 is complete control
[5] = preemergence, 16 g ai/ha, scale 0 to 100, 100 is complete control

For `CCCc1cc(C(=O)NCC(F)(F)F)nn1Cc1ccnc(C(F)(F)F)c1` [Compound 105], which “Plant response rating, Chickweed” value (chickweed; 31 g ai/ha) is on record?
The value was 95.

And the “Plant response rating, Chickweed” value (chickweed; 62 g ai/ha)?
Its value is 100.

What about the “Plant response rating, Chickweed” value (chickweed; 125 g ai/ha) of the same compound?
The value was 100.

And the “Plant response rating, Chickweed” value (chickweed; 250 g ai/ha)?
Its value is 100.

And the “Plant response rating, Radish, Wild” value (radish, wild; 31 g ai/ha)?
Its value is 35.

What about the “Plant response rating, Radish, Wild” value (radish, wild; 62 g ai/ha) of the same compound?
Its value is 100.

And the “Plant response rating, Radish, Wild” value (radish, wild; 125 g ai/ha)?
The value was 100.

And the “Plant response rating, Radish, Wild” value (radish, wild; 250 g ai/ha)?
Its value is 100.

And the “Plant response rating, Windgrass” value (windgrass; 31 g ai/ha)?
The value was 75.

What about the “Plant response rating, Windgrass” value (windgrass; 62 g ai/ha) of the same compound?
The value was 100.

What about the “Plant response rating, Windgrass” value (windgrass; 125 g ai/ha) of the same compound?
Its value is 100.

What about the “Plant response rating, Windgrass” value (windgrass; 250 g ai/ha) of the same compound?
Its value is 100.

And the “Canarygrass plant response rating” value (canarygrass; Postemergence, 31 g ai/ha)?
The value was 10.

What about the “Canarygrass plant response rating” value (canarygrass; Postemergence, 125 g ai/ha) of the same compound?
Its value is 25.

And the “Canarygrass plant response rating” value (canarygrass; Postemergence, 250 g ai/ha)?
The value was 40.

And the “Canarygrass plant response rating” value (canarygrass; postemergence, 62 g ai/ha)?
The value was 15.

What about the “Galium plant response rating” value (galium; Postemergence, 31 g ai/ha) of the same compound?
Its value is 70.

And the “Galium plant response rating” value (galium; Postemergence, 125 g ai/ha)?
Its value is 80.

And the “Galium plant response rating” value (galium; Postemergence, 250 g ai/ha)?
The value was 85.

And the “Galium plant response rating” value (galium; postemergence, 62 g ai/ha)?
The value was 75.

And the “Ryegrass, Italian plant response rating” value (ryegrass, Italian; Postemergence, 31 g ai/ha)?
The value was 5.

What about the “Ryegrass, Italian plant response rating” value (ryegrass, Italian; Postemergence, 125 g ai/ha) of the same compound?
The value was 40.

What about the “Ryegrass, Italian plant response rating” value (ryegrass, Italian; Postemergence, 250 g ai/ha) of the same compound?
The value was 65.

And the “Ryegrass, Italian plant response rating” value (ryegrass, Italian; postemergence, 62 g ai/ha)?
Its value is 5.

And the “Lambsquarters plant response rating” value (lambsquarters; Postemergence, 31 g ai/ha)?
Its value is 40.

What about the “Lambsquarters plant response rating” value (lambsquarters; Postemergence, 125 g ai/ha) of the same compound?
The value was 70.

What about the “Lambsquarters plant response rating” value (lambsquarters; Postemergence, 250 g ai/ha) of the same compound?
Its value is 80.

And the “Lambsquarters plant response rating” value (lambsquarters; postemergence, 62 g ai/ha)?
The value was 65.

What about the “Buckwheat, Wild plant response rating” value (buckwheat, wild; Postemergence, 31 g ai/ha) of the same compound?
The value was 55.

What about the “Buckwheat, Wild plant response rating” value (buckwheat, wild; Postemergence, 125 g ai/ha) of the same compound?
Its value is 70.

And the “Buckwheat, Wild plant response rating” value (buckwheat, wild; Postemergence, 250 g ai/ha)?
The value was 80.

What about the “Buckwheat, Wild plant response rating” value (buckwheat, wild; postemergence, 62 g ai/ha) of the same compound?
Its value is 65.

And the “Plant response rating, Velvetleaf” value (velvetleaf; [1])?
The value was 0.

What about the “Plant response rating, Velvetleaf” value (velvetleaf; [2]) of the same compound?
The value was 20.

What about the “Plant response rating, Velvetleaf” value (velvetleaf; [3]) of the same compound?
The value was 40.

And the “Plant response rating, Velvetleaf” value (velvetleaf; [4])?
The value was 0.

What about the “Plant response rating, Velvetleaf” value (velvetleaf; [5]) of the same compound?
The value was 0.

And the “Plant response rating, Pigweed, Palmer” value (pigweed, palmer; [2])?
The value was 50.

What about the “Plant response rating, Pigweed, Palmer” value (pigweed, palmer; [3]) of the same compound?
The value was 80.

What about the “Plant response rating, Pigweed, Palmer” value (pigweed, palmer; [4]) of the same compound?
Its value is 0.

What about the “Plant response rating, Pigweed, Palmer” value (pigweed, palmer; [5]) of the same compound?
The value was 0.

And the “Plant response rating, Common Waterhemp” value (common waterhemp; [1])?
The value was 100.

And the “Plant response rating, Common Waterhemp” value (common waterhemp; [2])?
The value was 100.

And the “Plant response rating, Common Waterhemp” value (common waterhemp; [3])?
The value was 100.

And the “Plant response rating, Common Waterhemp” value (common waterhemp; [4])?
The value was 75.

What about the “Plant response rating, Common Waterhemp” value (common waterhemp; [5]) of the same compound?
Its value is 100.

And the “Plant response rating, Arrowleaf Sida” value (arrowleaf sida; [1])?
The value was 0.

And the “Plant response rating, Arrowleaf Sida” value (arrowleaf sida; [2])?
The value was 0.

And the “Plant response rating, Arrowleaf Sida” value (arrowleaf sida; [3])?
The value was 15.

And the “Plant response rating, Arrowleaf Sida” value (arrowleaf sida; [4])?
Its value is 0.

What about the “Plant response rating, Arrowleaf Sida” value (arrowleaf sida; [5]) of the same compound?
The value was 0.

What about the “Plant response rating, Dayflower, VA” value (dayflower, VA; [1]) of the same compound?
The value was 50.

And the “Plant response rating, Dayflower, VA” value (dayflower, VA; [2])?
Its value is 80.

What about the “Plant response rating, Dayflower, VA” value (dayflower, VA; [3]) of the same compound?
Its value is 98.

What about the “Plant response rating, Dayflower, VA” value (dayflower, VA; [4]) of the same compound?
Its value is 0.

And the “Plant response rating, Dayflower, VA” value (dayflower, VA; [5])?
Its value is 40.

What about the “Plant response rating, Yellow Nutsedge” value (yellow nutsedge; [1]) of the same compound?
Its value is 25.

And the “Plant response rating, Yellow Nutsedge” value (yellow nutsedge; [2])?
The value was 25.

And the “Plant response rating, Yellow Nutsedge” value (yellow nutsedge; [3])?
Its value is 65.

What about the “Plant response rating, Yellow Nutsedge” value (yellow nutsedge; [4]) of the same compound?
Its value is 0.

And the “Plant response rating, Yellow Nutsedge” value (yellow nutsedge; [5])?
The value was 0.
